Laboratory results reported in patent US20250145633A1, “SUBSTITUTED FURANOPYRIMIDINE COMPOUNDS AS PDE1 INHIBITORS” (Dart NeuroScience, LLC, priority 2017, published 2025).

Molecular target: human PDE1B enzyme (Homo sapiens (Human), UniProt Q01064)
Assay: IMAP TR-FRET PDE1B enzymatic assay
Assay type: biochemical
Conditions: negative log of half-maximal molar inhibitory concentration, 200 nM FAM-cAMP, values given as bins; for IC50: read-out: PDE1b (pIC50) (converted)
Summary of the method: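 Full-length GST-tagged human PDE1B (250 pg/well) in IMAP BSA buffer with 10 U/ml calmodulin and 2.5 mM CaCl2; compound pre-incubated 5 min at room temperature, then 200 nM (final) FAM-cAMP for 30 min. IMAP binding reagent/Tb added, 1 h; TR-FRET 520/490 ratio read. IC50 from sigmoidal dose-response fit.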

SMILES: Cc1oc2ncnc(NC3(C)CC3)c2c1C(=O)NC(C)C1CC1 (stereo not shown) [Example 400, N-(1-Cyclopropylethyl)-6-methyl-4-[(1-methylcyclopropyl)amino]furo[2,3-d]pyrimidine-5-carboxamide]
- IC50: 10 to 100 nM

SMILES: CCC(NC(=O)c1c(C)oc2ncnc(NC3(C)CC3)c12)C1CC1 (stereo not shown) [Example 401, N-(1-Cyclopropylpropyl)-6-methyl-4-[(1-methylcyclopropyl)amino]furo[2,3-d]pyrimidine-5-carboxamide]
- IC50: 10 to 100 nM

SMILES: Cc1oc2ncnc(NC3(C)CC3)c2c1C(=O)NC(C)C1(C)CC1 (stereo not shown) [Example 402, 6-Methyl-4-[(1-methylcyclopropyl)amino]-N-[1-(1-methylcyclopropyl)ethyl]furo[2,3-d]pyrimidine-5-carboxamide]
- IC50: 10 to 100 nM

SMILES: Cc1oc2ncnc(NC3(C)CC3)c2c1C(=O)N1CC2CC(C1)c1ccccc12 [Example 403, 5-{10-Azatricyclo[6.3.1.0^2,7]dodeca-2,4,6-triene-10-carbonyl}-6-methyl-N-(1-methylcyclopropyl)furo[2,3-d]pyrimidin-4-amine]
- IC50: 100 to 1000 nM

SMILES: Cc1oc2ncnc(NC3(C)CC3)c2c1C(=O)n1cc(C(C)C)cn1 [Example 404, 6-Methyl-N-(1-methylcyclopropyl)-5-[4-(propan-2-yl)-1H-pyrazole-1-carbonyl]furo[2,3-d]pyrimidin-4-amine]
- IC50: 10 to 100 nM

SMILES: Cc1oc2ncnc(NC3(C)CC3)c2c1C(=O)n1cc(-c2ccccc2)cn1 [Example 405, 6-Methyl-N-(1-methylcyclopropyl)-5-(4-phenyl-1H-pyrazole-1-carbonyl)furo[2,3-d]pyrimidin-4-amine]
- IC50: 100 to 1000 nM

SMILES: COc1ccc(-c2cnn(C(=O)c3c(C)oc4ncnc(NC5(C)CC5)c34)c2)cc1 [Example 406, 5-[4-(4-Methoxyphenyl)-1H-pyrazole-1-carbonyl]-6-methyl-N-(1-methylcyclopropyl)furo[2,3-d]pyrimidin-4-amine]
- IC50: 100 to 1000 nM

SMILES: Cc1oc2ncnc(NC3(C)CC3)c2c1C(=O)n1cc(-c2ccc(F)cc2)cn1 [Example 407, 5-[4-(4-Fluorophenyl)-1H-pyrazole-1-carbonyl]-6-methyl-N-(1-methylcyclopropyl)furo[2,3-d]pyrimidin-4-amine]
- IC50: 10 to 100 nM

SMILES: Cc1cnn(C(=O)c2c(C)oc3ncnc(NC4(C)CC4)c23)c1 [Example 408, 6-Methyl-5-(4-methyl-1H-pyrazole-1-carbonyl)-N-(1-methylcyclopropyl)furo[2,3-d]pyrimidin-4-amine]
- IC50: 100 to 1000 nM

SMILES: Cc1nn(C(=O)c2c(C)oc3ncnc(NC4(C)CC4)c23)c(C)c1C [Example 409, 6-Methyl-N-(1-methylcyclopropyl)-5-(trimethyl-1H-pyrazole-1-carbonyl)furo[2,3-d]pyrimidin-4-amine]
- IC50: 10 to 100 nM

SMILES: Cc1oc2ncnc(NC3(C)CC3)c2c1C(=O)n1cccn1 [Example 410, 6-Methyl-N-(1-methylcyclopropyl)-5-(1H-pyrazole-1-carbonyl)furo[2,3-d]pyrimidin-4-amine]
- IC50: 100 to 1000 nM

SMILES: Cc1cc(C)n(C(=O)c2c(C)oc3ncnc(NC4(C)CC4)c23)n1 [Example 411, 5-(3,5-Dimethyl-1H-pyrazole-1-carbonyl)-6-methyl-N-(1-methylcyclopropyl)furo[2,3-d]pyrimidin-4-amine]
- IC50: 10 to 100 nM

SMILES: COc1cccc(-c2cnn(C(=O)c3c(C)oc4ncnc(NC5(C)CC5)c34)c2)c1 [Example 412, 5-[4-(3-Methoxyphenyl)-1H-pyrazole-1-carbonyl]-6-methyl-N-(1-methylcyclopropyl)furo[2,3-d]pyrimidin-4-amine]
- IC50: 10 to 100 nM

SMILES: Cc1oc2ncnc(NC3(C)CC3)c2c1C(=O)NCC1(C)CC1 [Example 413, 6-Methyl-4-[(1-methylcyclopropyl)amino]-N-[(1-methylcyclopropyl)methyl]furo[2,3-d]pyrimidine-5-carboxamide]
- IC50: 10 to 100 nM

SMILES: Cc1oc2ncnc(NC3(C)CC3)c2c1C(=O)N1CCC(Cc2ccc(F)cc2)C1 (stereo not shown) [Example 414, 5-{3-[(4-Fluorophenyl)methyl]pyrrolidine-1-carbonyl}-6-methyl-N-(1-methylcyclopropyl)furo[2,3-d]pyrimidin-4-amine]
- IC50: 10 to 100 nM

SMILES: Cc1nn(C(=O)c2c(C)oc3ncnc(NC4(C)CC4)c23)c(C)c1CN1CCOCC1 [Example 415, 5-[3,5-Dimethyl-4-(morpholin-4-ylmethyl)-1H-pyrazole-1-carbonyl]-6-methyl-N-(1-methylcyclopropyl)furo[2,3-d]pyrimidin-4-amine]
- IC50: 10 to 100 nM

SMILES: Cc1oc2ncnc(NC3(C)CC3)c2c1C(=O)Nc1ccn(C)n1 [Example 416, 6-Methyl-N-(1-methyl-1H-pyrazol-3-yl)-4-[(1-methylcyclopropyl)amino]furo[2,3-d]pyrimidine-5-carboxamide]
- IC50: 10 to 100 nM

SMILES: Cc1oc2ncnc(NC3(C)CC3)c2c1C(=O)Nc1cnn(C)c1C [Example 417, N-(1,5-Dimethyl-1H-pyrazol-4-yl)-6-methyl-4-[(1-methylcyclopropyl)amino]furo[2,3-d]pyrimidine-5-carboxamide]
- IC50: 10 to 100 nM

SMILES: Cc1nn(C)c(C)c1NC(=O)c1c(C)oc2ncnc(NC3(C)CC3)c12 [Example 418, 6-Methyl-4-[(1-methylcyclopropyl)amino]-N-(trimethyl-1H-pyrazol-4-yl)furo[2,3-d]pyrimidine-5-carboxamide]
- IC50: 10 to 100 nM

SMILES: Cc1oc2ncnc(NC3(C)CC3)c2c1C(=O)Nc1cnn(-c2ccccn2)c1 [Example 419, 6-Methyl-4-[(1-methylcyclopropyl)amino]-N-[1-(pyridin-2-yl)-1H-pyrazol-4-yl]furo[2,3-d]pyrimidine-5-carboxamide]
- IC50: 10 to 100 nM

SMILES: COCCn1nc(C)c(NC(=O)c2c(C)oc3ncnc(NC4(C)CC4)c23)c1C [Example 420, N-[1-(2-Methoxyethyl)-3,5-dimethyl-1H-pyrazol-4-yl]-6-methyl-4-[(1-methylcyclopropyl)amino]furo[2,3-d]pyrimidine-5-carboxamide]
- IC50: 10 to 100 nM

SMILES: Cc1oc2ncnc(NC3(C)CC3)c2c1C(=O)Nc1cnn(CCN2CCOCC2)c1 [Example 421, 6-Methyl-4-[(1-methylcyclopropyl)amino]-N-{1-[2-(morpholin-4-yl)ethyl]-1H-pyrazol-4-yl}furo[2,3-d]pyrimidine-5-carboxamide]
- IC50: 10 to 100 nM

SMILES: COc1cccc(C2CCN(C(=O)c3c(C)oc4ncnc(NC5(C)CC5)c34)CC2)n1 [Example 422, 5-[4-(6-Methoxypyridin-2-yl)piperidine-1-carbonyl]-6-methyl-N-(1-methylcyclopropyl)furo[2,3-d]pyrimidin-4-amine]
- PDE1b (pIC50): >8

SMILES: COc1cnc(C2CCN(C(=O)c3c(C)oc4ncnc(NC5(C)CC5)c34)CC2)nc1C [Example 423, 5-[4-(5-Methoxy-4-methylpyrimidin-2-yl)piperidine-1-carbonyl]-6-methyl-N-(1-methylcyclopropyl)furo[2,3-d]pyrimidin-4-amine]
- IC50: 10 to 100 nM

SMILES: Cc1oc2ncnc(NC3(C)CC3)c2c1C(=O)N1CCc2c(nc(-c3ccc(F)cc3)[nH]c2=O)C1 [Example 424, 2-(4-Fluorophenyl)-7-{6-methyl-4-[(1-methylcyclopropyl)amino]furo[2,3-d]pyrimidine-5-carbonyl}-3H,4H,5H,6H,7H,8H-pyrido[3,4-d]pyrimidin-4-one]
- IC50: 10 to 100 nM

SMILES: COCc1nc2c(c(=O)[nH]1)CCN(C(=O)c1c(C)oc3ncnc(NC4(C)CC4)c13)C2 [Example 425, 2-(Methoxymethyl)-7-{6-methyl-4-[(1-methylcyclopropyl)amino]furo[2,3-d]pyrimidine-5-carbonyl}-3H,4H,5H,6H,7H,8H-pyrido[3,4-d]pyrimidin-4-one]
- IC50: 100 to 1000 nM

SMILES: Cc1cccc(NC(=O)c2c(C)oc3ncnc(NC4(C)CC4)c23)n1 [Example 426, 6-Methyl-4-[(1-methylcyclopropyl)amino]-N-(6-methylpyridin-2-yl)furo[2,3-d]pyrimidine-5-carboxamide]
- IC50: 10 to 100 nM

SMILES: Cc1ccnc(NC(=O)c2c(C)oc3ncnc(NC4(C)CC4)c23)c1 [Example 427, 6-Methyl-4-[(1-methylcyclopropyl)amino]-N-(4-methylpyridin-2-yl)furo[2,3-d]pyrimidine-5-carboxamide]
- IC50: 100 to 1000 nM

SMILES: Cc1cccnc1NC(=O)c1c(C)oc2ncnc(NC3(C)CC3)c12 [Example 428, 6-Methyl-4-[(1-methylcyclopropyl)amino]-N-(3-methylpyridin-2-yl)furo[2,3-d]pyrimidine-5-carboxamide]
- IC50: 100 to 1000 nM

SMILES: COCCn1cc(NC(=O)c2c(C)oc3ncnc(NC4(C)CC4)c23)cn1 [Example 429, N-[1-(2-Methoxyethyl)-1H-pyrazol-4-yl]-6-methyl-4-[(1-methylcyclopropyl)amino]furo[2,3-d]pyrimidine-5-carboxamide]
- IC50: 10 to 100 nM

SMILES: Cc1oc2ncnc(NC3(C)CC3)c2c1C(=O)NC12CC(C1)C2 [Example 430, N-{Bicyclo[1.1.1]pentan-1-yl}-6-methyl-4-[(1-methylcyclopropyl)amino]furo[2,3-d]pyrimidine-5-carboxamide]
- IC50: 10 to 100 nM

SMILES: Cc1oc2ncnc(NC3(C)CC3)c2c1C(=O)N1CCC(c2ncc(C(F)(F)F)cn2)CC1 [Example 431, 6-Methyl-N-(1-methylcyclopropyl)-5-{4-[5-(trifluoromethyl)pyrimidin-2-yl]piperidine-1-carbonyl}furo[2,3-d]pyrimidin-4-amine]
- IC50: 10 to 100 nM

SMILES: Cc1cn(C)nc1NC(=O)c1c(C)oc2ncnc(NC3(C)CC3)c12 [Example 432, N-(1,4-Dimethyl-1H-pyrazol-3-yl)-6-methyl-4-[(1-methylcyclopropyl)amino]furo[2,3-d]pyrimidine-5-carboxamide]
- IC50: 10 to 100 nM

SMILES: Cc1nc(NC(=O)c2c(C)oc3ncnc(NC4(C)CC4)c23)sc1C [Example 433, N-(Dimethyl-1,3-thiazol-2-yl)-6-methyl-4-[(1-methylcyclopropyl)amino]furo[2,3-d]pyrimidine-5-carboxamide]
- IC50: 10 to 100 nM
